Laboratory results taken from US20230241014A1, “MEK-INHIBITORS FOR THE TREATMENT OR PREVENTION OF CORONAVIRUS INFECTIONS AND/OR COVID-19 CYTOKINE STORM” (priority 2020, published 2023).

Tested on: VSV pseudotype virus carrying the SARS-CoV-2 Spike protein
Format: cell-based

O=C(NOCC1CC1)c1ccc(F)c(F)c1Nc1ccc(I)cc1Cl [CI-1040, reference compound]
internalization of the VSV pseudotype virus (GFP positive cells): reduction in the internalization
